Drawing on BindingDB's records for doi:10.1021/jm100812a (Boehringer Ingelheim Pharma, 2010), this text covers IC50 and EC50 for three molecules.

In test [1] the target is Activin receptor-like kinase 1, ACVRL1 (Homo sapiens) (UniProt P37023). As to the kind of experiment: Inhibition of ALK1.
Test [2] concerns the target T1, TGF-beta receptor type-1 (Homo sapiens, UniProt P36897).
T1 sequence (P36897 whole entry): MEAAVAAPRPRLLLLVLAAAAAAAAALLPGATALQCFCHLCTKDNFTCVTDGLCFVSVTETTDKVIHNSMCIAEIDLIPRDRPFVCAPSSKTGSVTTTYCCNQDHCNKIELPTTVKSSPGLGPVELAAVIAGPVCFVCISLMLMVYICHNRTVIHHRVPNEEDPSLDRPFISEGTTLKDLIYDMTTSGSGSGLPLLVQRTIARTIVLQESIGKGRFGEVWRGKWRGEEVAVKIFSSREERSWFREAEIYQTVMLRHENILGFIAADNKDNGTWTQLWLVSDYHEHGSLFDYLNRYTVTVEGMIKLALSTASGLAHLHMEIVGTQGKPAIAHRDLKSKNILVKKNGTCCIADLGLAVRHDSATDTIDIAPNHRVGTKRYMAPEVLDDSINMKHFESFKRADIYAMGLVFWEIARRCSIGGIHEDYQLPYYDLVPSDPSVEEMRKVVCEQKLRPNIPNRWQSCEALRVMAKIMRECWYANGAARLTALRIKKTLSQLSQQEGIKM
In words: Inhibition of TGFbeta receptor.

Test [3] addresses T1, TGF-beta receptor type-1. As to the kind of experiment: Inhibition of TGFbeta receptor in human HaCaT cells assessed as Smad phosphorylation by ELISA. In general terms: In an ELISA, binding on a coated surface is turned into a signal by an enzyme label.
In test [4] the target is Platelet-derived growth factor receptor alpha (Homo sapiens, UniProt P16234). As to the kind of experiment: Inhibition of PDGFRalpha.
Sequence of Platelet-derived growth factor receptor alpha (P16234 whole entry): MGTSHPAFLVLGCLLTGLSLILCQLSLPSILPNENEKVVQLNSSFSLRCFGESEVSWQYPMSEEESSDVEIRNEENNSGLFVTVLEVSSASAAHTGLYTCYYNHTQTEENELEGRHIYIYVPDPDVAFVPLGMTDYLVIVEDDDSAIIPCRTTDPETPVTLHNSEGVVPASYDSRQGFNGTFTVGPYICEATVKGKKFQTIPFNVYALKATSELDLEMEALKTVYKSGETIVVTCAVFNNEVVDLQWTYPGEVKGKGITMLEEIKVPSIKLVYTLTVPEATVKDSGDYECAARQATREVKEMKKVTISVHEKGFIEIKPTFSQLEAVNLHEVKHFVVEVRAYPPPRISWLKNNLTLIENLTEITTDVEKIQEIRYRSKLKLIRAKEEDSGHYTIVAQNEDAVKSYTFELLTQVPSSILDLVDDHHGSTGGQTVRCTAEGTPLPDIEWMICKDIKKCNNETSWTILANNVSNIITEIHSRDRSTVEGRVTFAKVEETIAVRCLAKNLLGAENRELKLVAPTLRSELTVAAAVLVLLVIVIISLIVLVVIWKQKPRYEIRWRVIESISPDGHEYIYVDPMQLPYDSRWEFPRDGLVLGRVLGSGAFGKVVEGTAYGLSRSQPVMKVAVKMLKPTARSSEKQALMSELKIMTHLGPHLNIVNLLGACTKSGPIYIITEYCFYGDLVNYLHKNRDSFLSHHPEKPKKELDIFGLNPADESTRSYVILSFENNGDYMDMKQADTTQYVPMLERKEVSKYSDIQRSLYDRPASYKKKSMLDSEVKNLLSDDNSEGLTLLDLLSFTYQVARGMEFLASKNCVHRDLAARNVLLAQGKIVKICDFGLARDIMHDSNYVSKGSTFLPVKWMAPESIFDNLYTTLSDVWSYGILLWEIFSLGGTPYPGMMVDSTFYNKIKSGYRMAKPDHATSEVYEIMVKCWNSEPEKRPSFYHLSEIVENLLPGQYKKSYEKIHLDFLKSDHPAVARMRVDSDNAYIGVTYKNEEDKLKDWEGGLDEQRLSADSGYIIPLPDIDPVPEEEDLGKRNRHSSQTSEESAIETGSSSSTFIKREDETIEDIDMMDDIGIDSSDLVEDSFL

Sequence of Activin receptor-like kinase 1, ACVRL1 (Homo sapiens) (P37023 whole entry, looked up): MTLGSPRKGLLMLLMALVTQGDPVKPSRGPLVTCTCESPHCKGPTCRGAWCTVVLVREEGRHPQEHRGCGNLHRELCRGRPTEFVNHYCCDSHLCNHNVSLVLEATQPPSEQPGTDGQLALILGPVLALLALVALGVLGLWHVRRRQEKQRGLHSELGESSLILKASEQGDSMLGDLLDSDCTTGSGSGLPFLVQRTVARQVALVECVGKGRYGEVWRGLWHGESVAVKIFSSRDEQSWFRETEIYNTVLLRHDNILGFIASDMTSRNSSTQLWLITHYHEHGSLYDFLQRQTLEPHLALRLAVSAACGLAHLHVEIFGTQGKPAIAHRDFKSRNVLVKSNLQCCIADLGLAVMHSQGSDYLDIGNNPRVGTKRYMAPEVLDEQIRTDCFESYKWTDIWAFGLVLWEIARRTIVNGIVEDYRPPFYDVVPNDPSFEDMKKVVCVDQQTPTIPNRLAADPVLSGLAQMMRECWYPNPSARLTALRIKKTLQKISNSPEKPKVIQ

In test [1], `CCN(C)C(=O)c1ccc2c(c1)NC(=O)/C2=C(\Nc1ccc(CN2CCCCC2)cc1)c1ccccc1` displayed an IC50 of 4 µM.

In the case of `CCN(C)C(=O)c1ccc2c(c1)NC(=O)C2C(=NC1CCCCC1)c1ccccc1` (configuration not stated) [(Z)-3-((cyclohexylamino)(phenyl)methylene)-N-ethyl-N-methyl-2-oxoindoline-6-carboxamide], the IC50 was greater than 50 µM on TGF-beta receptor type-1 [2] and greater than 5 µM in test [4]. In addition, on TGF-beta receptor type-1 [3], the EC50 was greater than 10 µM.

Regarding `CCN(C)C(=O)c1ccc2c(c1)NC(=O)C2C(=NC1CCN(C)CC1)c1ccccc1` (configuration not stated) [(Z)-N-ethyl-N-methyl-3-((1-methylpiperidin-4-ylamino)(phenyl)methylene)-2-oxoindoline-6-carboxamide], the IC50 against TGF-beta receptor type-1 [2] is greater than 50 µM; in test [4], greater than 5 µM. Besides, on TGF-beta receptor type-1 [3], the EC50 is greater than 10 µM.

Broadly, the IC50 is the midpoint of a concentration-inhibition curve. Low values mean higher potency, high ones lower potency. A word on the EC50: it is the midpoint of the concentration-response curve.
